Test results taken from patent US20190184054A1, “COMPOSITIONS FOR THE TREATMENT OF PAIN AND/OR INFLAMMATION” (BCN PEPTIDES. S.A., priority 2008, published 2019).
Primed or numbered codes have the meaning given here. *: point of attachment. PEG1′ = PEG spacer, n=1 in acetyl-PEGn N-terminus; PEG2′ = PEG spacer, n=2 in acetyl-PEGn N-terminus; PEG3′ = PEG spacer, n=3 in acetyl-PEGn N-terminus; PEG4′ = PEG spacer, n=4 in acetyl-PEGn N-terminus; PEG5′ = PEG spacer, n=5 in acetyl-PEGn N-terminus; Palmitoyl = CCCCCCCCCCCCCCCC(=O)*

What follows are compounds tested on inflammation produced by intraplantar injection of carrageenan (assay: carrageenan test: paw volume increase after intraplantar carrageenan, measured with a plethysmometer). Settings: diclofenac 10 mg/kg, positive control used as the standard.
Assay type: in vivo
Excerpt: Carrageenan is an irritant whose administration causes a powerful inflammation four hours after administration. The inflammatory process can be easily discerned as an increase in the volume of the paw that received carrageenan, measured with a plethysmometer. […] Therefore, the peptides of this invention have anti-inflammatory activity in vivo.

| Compound | ANTI-INFLAMMATORY ACTIVITY |
| --- | --- |
| O=C(O)Cc1ccccc1Nc1c(Cl)cccc1Cl [diclofenac, reference compound] | 100% |

Same assay, conditions: peptides 5 mg/kg (im); decrease in inflammation standardized to positive control diclofenac

| Compound | ANTI-INFLAMMATORY ACTIVITY |
| --- | --- |
| Ac-PEG1-SEQ ID No. 11-NH2: acetyl-PEGn (n=1) N-terminus, amide C-terminus; SNAP-25 residues 12 to 17 (SEQ ID No. 11) ({Ac-PEG1′}-EEMQRR-NH2; listed as Homo sapiens) | 21% |
| Ac-PEG2-SEQ ID No. 11-NH2: acetyl-PEGn (n=2) N-terminus, amide C-terminus; SNAP-25 residues 12 to 17 (SEQ ID No. 11) ({Ac-PEG2′}-EEMQRR-NH2; listed as Homo sapiens) | 29% |
| Ac-PEG3-SEQ ID No. 11-NH2: acetyl-PEGn (n=3) N-terminus, amide C-terminus; SNAP-25 residues 12 to 17 (SEQ ID No. 11) ({Ac-PEG3′}-EEMQRR-NH2; listed as Homo sapiens) | 42% |
| Ac-PEG4-SEQ ID No. 11-NH2: acetyl-PEGn (n=4) N-terminus, amide C-terminus; SNAP-25 residues 12 to 17 (SEQ ID No. 11) ({Ac-PEG4′}-EEMQRR-NH2; listed as Homo sapiens) | 23% |
| Ac-PEG5-SEQ ID No. 11-NH2: acetyl-PEGn (n=5) N-terminus, amide C-terminus; SNAP-25 residues 12 to 17 (SEQ ID No. 11) ({Ac-PEG5′}-EEMQRR-NH2; listed as Homo sapiens) | 53% |
| Ac-SEQ ID No. 4-NH2: acetyl N-terminus, amide C-terminus; SNAP-25 residues 10 to 22 (SEQ ID No. 4) (Ac-ELEEMQRRADQLA-NH2; listed as Homo sapiens) | 65% |
| Ac-SEQ ID No. 9-NH2: acetyl N-terminus, amide C-terminus; SNAP-25 residues 26 to 38 (SEQ ID No. 9) (Ac-LESTRRMLQLVEE-NH2; listed as Homo sapiens) | 98% |
| Ac-SEQ ID No. 11-NH2: acetyl N-terminus, amide C-terminus; SNAP-25 residues 12 to 17 (SEQ ID No. 11) (Ac-EEMQRR-NH2; listed as Homo sapiens) | 49% |
| Ac-SEQ ID No. 26-NH2: acetyl N-terminus, amide C-terminus; SNAP-25-derived sequence SEQ ID No. 26 (Ac-EEMQRRA-NH2; listed as Homo sapiens) | 14% |
| Palm-SEQ ID No. 4-NH2: palmitoyl N-terminus, amide C-terminus; SNAP-25 residues 10 to 22 (SEQ ID No. 4) (Palmitoyl-ELEEMQRRADQLA-NH2; SMILES CCCCCCCCCCCCCCCC(=O)N[C@@H](CCC(=O)O)C(=O)N[C@@H](CC(C)C)C(=O)N[C@@H](CCC(=O)O)C(=O)N[C@@H](CCC(=O)O)C(=O)N[C@@H](CCSC)C(=O)N[C@@H](CCC(N)=O)C(=O)N[C@@H](CCCNC(=N)N)C(=O)N[C@@H](CCCNC(=N)N)C(=O)N[C@@H](C)C(=O)N[C@@H](CC(=O)O)C(=O)N[C@@H](CCC(N)=O)C(=O)N[C@@H](CC(C)C)C(=O)N[C@@H](C)C(N)=O; listed as Homo sapiens) | 58% |
| Palm-SEQ ID No. 9-NH2: palmitoyl N-terminus, amide C-terminus; SNAP-25 residues 26 to 38 (SEQ ID No. 9) (Palmitoyl-LESTRRMLQLVEE-NH2; SMILES CCCCCCCCCCCCCCCC(=O)N[C@@H](CC(C)C)C(=O)N[C@@H](CCC(=O)O)C(=O)N[C@@H](CO)C(=O)N[C@H](C(=O)N[C@@H](CCCNC(=N)N)C(=O)N[C@@H](CCCNC(=N)N)C(=O)N[C@@H](CCSC)C(=O)N[C@@H](CC(C)C)C(=O)N[C@@H](CCC(N)=O)C(=O)N[C@@H](CC(C)C)C(=O)N[C@H](C(=O)N[C@@H](CCC(=O)O)C(=O)N[C@@H](CCC(=O)O)C(N)=O)C(C)C)[C@@H](C)O; listed as Homo sapiens) | 77% |
| Palm-SEQ ID No. 11-MH2: palmitoyl N-terminus, amide C-terminus; SNAP-25 residues 12 to 17 (SEQ ID No. 11) (Palmitoyl-EEMQRR-NH2; SMILES CCCCCCCCCCCCCCCC(=O)N[C@@H](CCC(=O)O)C(=O)N[C@@H](CCC(=O)O)C(=O)N[C@@H](CCSC)C(=O)N[C@@H](CCC(N)=O)C(=O)N[C@@H](CCCNC(=N)N)C(=O)N[C@@H](CCCNC(=N)N)C(N)=O; listed as Homo sapiens) | 81% |
